{
  "source": "patent US11484539B2",
  "about": "“Compounds and their uses for alleviating menopause-associated symptoms” (Estetra SPRL, priority 2018, dated 2022)",
  "tested_on": "post-menopausal women",
  "experiment": "Weekly frequency of moderate to severe VMS, dose-finding study",
  "assay_type": "in vivo",
  "settings": "for Difference with placebo, LS adjusted mean, absolute change in weekly frequency of moderate to severe VMS / Difference with placebo, LS adjusted mean, relative change in weekly frequency of moderate to severe VMS: 10 mg E4 vs placebo; for Differences with placebo (including ineffective doses 2.5 mg and 5 mg), relative change in weekly frequency of moderate to severe VMS, LS adjusted mean / Differences with placebo (including ineffective doses 2.5 mg and 5 mg), relative change in weekly frequency of moderate to severe VMS, p_value: 10.0 mg vs 0 mg; for Relative change in weekly frequency of moderate to severe VMS, LS adjusted mean: analysis with placebo grouped with 2.5 and 5 mg; for LS adjusted mean change from baseline in weekly frequency of moderate to severe VMS / LS adjusted mean relative change (%) from baseline in weekly frequency of moderate to severe VMS: 15 mg E4",
  "from_the_text": "To determine the Minimum Effective Dose (MED), firstly the selection criteria required that patients presented at least 7 moderate to severe VMS/day or at least 50 moderate to severe VMS/week in the week preceding randomization. Secondly, a placebo group was included in a double-blind fashion. Thirdly, the total patient number was such that statistical significance could be obtained between separate arms of the study. Fourthly, the absolute change from baseline in weekly frequency of moderate to severe VMS was taken into account. An analysis of covariance (ANCOVA) was performed based on the untransformed change in weekly frequency of moderate to severe VMS from baseline. Finally, the change in severity from baseline was evaluated. For this, the Severity Scoring System of VMS was documented by the subjects as follows: • a score of Mild (1) for a sensation of heat without sweating; • a score of Moderate (2) for a sensation of heat with sweating/the subject is able to continue activity; and • a score of Severe (3) for a sensation of heat with sweating/which causes cessation of activity.\nEnrolment was approximately 18 months. Individual subject participation was up to 27 weeks: up to 6 weeks pre-screening and washout, up to 4 weeks screening and run-in period, up to 91 days (13 weeks) of E4/placebo treatment followed by 2 weeks (14 days) of progestin therapy and a Follow up visit 1 week after completion of progestin therapy in non-hysterectomised subjects only.\nTo define the minimum effective dose (MED) of the oral dose of E4 by evaluating changes in frequency and in severity of moderate to severe vasomotor symptoms (VMS).\nThis was a prospective, multicentre, randomised, placebo-controlled, double-blinded, dose-finding study.\nEligible subjects were hysterectomised and non-hysterectomised post-menopausal women aged 40 to 65 years, inclusive, presenting at least 7 moderate to severe hot flushes/day or at least 50 moderate to severe hot flushes/week.\nThe subjects have met all of the following inclusion criteria at the randomization visit. These criteria were assessed during the screening period: • 1. Women aged 40 to 65 years, inclusive, presenting at least 7 moderate to severe hot flushes/day or at least 50 moderate to severe hot flushes/week in the week preceding randomization. • 2. Body Mass Index (BMI) between 18.0 and 35.0 kg/m^2, inclusive. • 3. Post-menopausal status defined as levels of follicle stimulating hormone (FSH) >40 IU/L and: • amenorrhoea for at least 12 consecutive months or, • amenorrhoea for at least 6 months with estradiol (E2)<20 pg/mL or, • at least 6 weeks post-surgical bilateral oophorectomy with or without hysterectomy with a copy of the pathology report or a statement on letterhead from the subject's physician documenting both ovaries were removed is required. • 4. For non-hysterectomised women: intact uterus with bi-layer endometrial thickness […] on TVUS. • 5. Negative pregnancy test. • 6. Good physical and mental health, in the judgement of the Principal Investigator (PI), on the basis of medical, surgical and gynaecological history, physical examination, gynaecological examination, clinical laboratory, and vital signs. • 7. Subject has provided signed and dated written informed consent before admission to the study. • 8. Subject is able to understand and comply with the protocol requirements, instructions, and protocol-stated restrictions. Exclusion Criteria:\nAll treatments (Estetrol, hereinafter, E4, [2.5 mg, 5 mg, 10 mg, 15 mg] capsule) were administered once daily (QD) per os for at least 12 consecutive weeks until the last biological assessments (Day 91 maximum) had been performed.\nIn order to analyse the data recorded in this study, treatment groups have been compared using an ANCOVA (analysis of covariance) with respect to the change in weekly frequency of moderate to severe VMS from baseline to weeks 4 and 12. […]",
  "key": {"[1]": {"settings": "week 4, ANCOVA with study centre"}, "[2]": {"settings": "week 12, ANCOVA with study centre"}},
  "data": [
    {"smiles": "C[C@]12CC[C@@H]3c4ccc(O)cc4CC[C@H]3[C@@H]1[C@@H](O)[C@@H](O)[C@@H]2O", "note": "[E4, 1,3,5 (10)-estratrien-3,15alpha,16alpha,17beta-tetrol]", "values": [
      {"measurement": "Mean change from baseline in weekly frequency of moderate to severe VMS", "setting": "10 mg E4 QD per os, week 8", "result": "−44.46"},
      {"measurement": "Relative change (% from baseline) in weekly frequency of moderate to severe VMS, mean", "setting": "10 mg E4 QD per os, week 8", "result": "−68", "unit": "%"},
      {"measurement": "Mean change from baseline in weekly frequency of moderate to severe VMS", "setting": "10 mg E4 QD per os, week 9", "result": "−45.19"},
      {"measurement": "Relative change (% from baseline) in weekly frequency of moderate to severe VMS, mean", "setting": "10 mg E4 QD per os, week 9", "result": "−69", "unit": "%"},
      {"measurement": "Mean change from baseline in weekly frequency of moderate to severe VMS", "setting": "10 mg E4 QD per os, week 10", "result": "−45.93"},
      {"measurement": "Relative change (% from baseline) in weekly frequency of moderate to severe VMS, mean", "setting": "10 mg E4 QD per os, week 10", "result": "−70", "unit": "%"},
      {"measurement": "Mean change from baseline in weekly frequency of moderate to severe VMS", "setting": "10 mg E4 QD per os, week 11", "result": "−45.90"},
      {"measurement": "Relative change (% from baseline) in weekly frequency of moderate to severe VMS, mean", "setting": "10 mg E4 QD per os, week 11", "result": "−70", "unit": "%"},
      {"measurement": "Mean change from baseline in weekly frequency of moderate to severe VMS", "setting": "10 mg E4 QD per os, week 12", "result": "−47.21"},
      {"measurement": "Relative change (% from baseline) in weekly frequency of moderate to severe VMS, mean", "setting": "10 mg E4 QD per os, week 12", "result": "−72", "unit": "%"},
      {"measurement": "Difference with placebo, LS adjusted mean, absolute change in weekly frequency of moderate to severe VMS", "setting": "[1]", "result": "−1.571"},
      {"measurement": "Difference with placebo, LS adjusted mean, relative change in weekly frequency of moderate to severe VMS", "setting": "[1]", "result": "−0.05376"},
      {"measurement": "Difference with placebo, LS adjusted mean, absolute change in weekly frequency of moderate to severe VMS", "setting": "week 4, without site effect", "result": "−2.222"},
      {"measurement": "Difference with placebo, LS adjusted mean, relative change in weekly frequency of moderate to severe VMS", "setting": "week 4, without site effect", "result": "−0.06517"},
      {"measurement": "Difference with placebo, LS adjusted mean, absolute change in weekly frequency of moderate to severe VMS", "setting": "[2]", "result": "−2.103"},
      {"measurement": "Difference with placebo, LS adjusted mean, relative change in weekly frequency of moderate to severe VMS", "setting": "[2]", "result": "−0.05804"},
      {"measurement": "Difference with placebo, LS adjusted mean, absolute change in weekly frequency of moderate to severe VMS", "setting": "week 12, without site effect", "result": "−2.603"},
      {"measurement": "Difference with placebo, LS adjusted mean, relative change in weekly frequency of moderate to severe VMS", "setting": "week 12, without site effect", "result": "−0.06624"},
      {"measurement": "Differences with placebo (including ineffective doses 2.5 mg and 5 mg), relative change in weekly frequency of moderate to severe VMS, LS adjusted mean", "setting": "week 4", "result": "−0.07645"},
      {"measurement": "Differences with placebo (including ineffective doses 2.5 mg and 5 mg), relative change in weekly frequency of moderate to severe VMS, p_value", "setting": "week 4", "result": 0.2615},
      {"measurement": "Differences with placebo (including ineffective doses 2.5 mg and 5 mg), relative change in weekly frequency of moderate to severe VMS, LS adjusted mean", "setting": "week 12", "result": "−0.08276"},
      {"measurement": "Differences with placebo (including ineffective doses 2.5 mg and 5 mg), relative change in weekly frequency of moderate to severe VMS, p_value", "setting": "week 12", "result": 0.1798},
      {"measurement": "Relative change (% from baseline) in weekly frequency of moderate to severe VMS, mean", "setting": "10 mg, Week 12", "result": "−72", "unit": "%"},
      {"measurement": "Relative change (% from baseline) in weekly frequency of moderate to severe VMS, mean", "setting": "10 mg, week 0", "result": 0, "unit": "%"},
      {"measurement": "Relative change (% from baseline) in weekly frequency of moderate to severe VMS, mean", "setting": "10 mg, week 1", "result": "−21", "unit": "%"},
      {"measurement": "Relative change (% from baseline) in weekly frequency of moderate to severe VMS, mean", "setting": "10 mg, week 2", "result": "−37", "unit": "%"},
      {"measurement": "Relative change (% from baseline) in weekly frequency of moderate to severe VMS, mean", "setting": "10 mg, week 3", "result": "−48", "unit": "%"},
      {"measurement": "Relative change (% from baseline) in weekly frequency of moderate to severe VMS, mean", "setting": "10 mg, week 4", "result": "−55", "unit": "%"},
      {"measurement": "Relative change in weekly frequency of moderate to severe VMS, LS adjusted mean", "setting": "10 mg, week 4", "result": "−0.5442"},
      {"measurement": "Relative change (% from baseline) in weekly frequency of moderate to severe VMS, mean", "setting": "10 mg, week 5", "result": "−60", "unit": "%"},
      {"measurement": "Relative change (% from baseline) in weekly frequency of moderate to severe VMS, mean", "setting": "10 mg, week 6", "result": "−65", "unit": "%"},
      {"measurement": "Relative change (% from baseline) in weekly frequency of moderate to severe VMS, mean", "setting": "10 mg, week 7", "result": "−66", "unit": "%"},
      {"measurement": "Relative change (% from baseline) in weekly frequency of moderate to severe VMS, mean", "setting": "10 mg, week 8", "result": "−68", "unit": "%"},
      {"measurement": "Relative change (% from baseline) in weekly frequency of moderate to severe VMS, mean", "setting": "10 mg, week 9", "result": "−69", "unit": "%"},
      {"measurement": "Relative change (% from baseline) in weekly frequency of moderate to severe VMS, mean", "setting": "10 mg, week 10", "result": "−70", "unit": "%"},
      {"measurement": "Relative change (% from baseline) in weekly frequency of moderate to severe VMS, mean", "setting": "10 mg, week 11", "result": "−70", "unit": "%"},
      {"measurement": "Relative change in weekly frequency of moderate to severe VMS, LS adjusted mean", "setting": "10 mg, week 12", "result": "−0.7008"},
      {"measurement": "LS adjusted mean change from baseline in weekly frequency of moderate to severe VMS", "setting": "[1]", "result": "−43.6"},
      {"measurement": "LS adjusted mean relative change (%) from baseline in weekly frequency of moderate to severe VMS", "setting": "[1]", "result": -64.7, "unit": "%"},
      {"measurement": "LS adjusted mean change from baseline in weekly frequency of moderate to severe VMS", "setting": "week 4, without site effect", "result": "−44.36"},
      {"measurement": "LS adjusted mean relative change (%) from baseline in weekly frequency of moderate to severe VMS", "setting": "week 4, without site effect", "result": -66, "unit": "%"},
      {"measurement": "LS adjusted mean change from baseline in weekly frequency of moderate to severe VMS", "setting": "[2]", "result": "−53.83"},
      {"measurement": "LS adjusted mean relative change (%) from baseline in weekly frequency of moderate to severe VMS", "setting": "[2]", "result": -80.1, "unit": "%"},
      {"measurement": "LS adjusted mean change from baseline in weekly frequency of moderate to severe VMS", "setting": "week 12, without site effect", "result": "−54.91"},
      {"measurement": "LS adjusted mean relative change (%) from baseline in weekly frequency of moderate to severe VMS", "setting": "week 12, without site effect", "result": -82.3, "unit": "%"},
      {"measurement": "Mean change from baseline in weekly frequency of moderate to severe VMS", "setting": "15 mg E4 QD per os, week 1", "result": "−14.86"},
      {"measurement": "Relative change (% from baseline) in weekly frequency of moderate to severe VMS, mean", "setting": "15 mg E4 QD per os, week 1", "result": "−22", "unit": "%"},
      {"measurement": "Mean change from baseline in weekly frequency of moderate to severe VMS", "setting": "15 mg E4 QD per os, week 2", "result": "−29.19"},
      {"measurement": "Relative change (% from baseline) in weekly frequency of moderate to severe VMS, mean", "setting": "15 mg E4 QD per os, week 2", "result": "−46", "unit": "%"},
      {"measurement": "Mean change from baseline in weekly frequency of moderate to severe VMS", "setting": "15 mg E4 QD per os, week 3", "result": "−36.30"},
      {"measurement": "Relative change (% from baseline) in weekly frequency of moderate to severe VMS, mean", "setting": "15 mg E4 QD per os, week 3", "result": "−57", "unit": "%"}
    ]}
  ]
}
